Our source for the IC50 values is paper PMC12467234, “Label-Free and Ultrasensitive APE1 Detection Based on Hybridization Chain Reaction Combined with G-Quadruplex” (Biomolecules, 2025).

In this assay the target is T1, Apurinic/apyrimidinic endonuclease 1 (APE1) (Homo sapiens, UniProt P27695).
T1 construct: gene APEX1
Description: fluorescent HCR/G-quadruplex-ThT assay of AP-site cleavage by purchased APE1; also in cell lysates. Format: biochemical.

Like-named read-outs stand apart in the source and are kept apart here.

T1 sequence (P27695 2-318): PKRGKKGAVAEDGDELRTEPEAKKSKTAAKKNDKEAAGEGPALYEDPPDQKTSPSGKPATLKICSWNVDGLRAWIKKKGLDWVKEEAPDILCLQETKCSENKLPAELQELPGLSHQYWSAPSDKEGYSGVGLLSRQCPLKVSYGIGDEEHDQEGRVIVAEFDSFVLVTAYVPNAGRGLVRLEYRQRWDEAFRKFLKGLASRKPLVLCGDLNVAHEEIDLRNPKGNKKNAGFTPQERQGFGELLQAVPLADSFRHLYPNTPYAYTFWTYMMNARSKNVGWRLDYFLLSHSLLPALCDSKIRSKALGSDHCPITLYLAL

As to `O=C(O)c1cc2cccc([N+](=O)[O-])c2[nH]1` [NCA, 7-nitroindole-2-carboxylic acid], the IC50 (as a rule, the concentration at which inhibition is half-maximal) was approximately 3.5 µM.

Take `CO/N=C(\C(=O)N[C@@H]1C(=O)N2C(C(=O)O)=C(COC(C)=O)CS[C@H]12)c1csc(N)n1` [cefotaxime sodium]: where the note is “read-out: IC50”, the IC50 was approximately 75 µM.
